The source made the active and inactive calls.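 Rule for the calls: active = Level of the kinase MAPK1 protein lowered or raised by at least 30% versus solvent-only cells; inactive = change under 30% either way.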
What was measured:
[1] = system: DLD-1 cells, ERK1/2 western blot, 24 h; test: total ERK1/2 protein level change, either direction, late-stage follow-up, counter-screen for KLF5 inhibitor project, DLD1 cells, chemiluminescent western blot, powder samples (AID 588614); conditions: measured here: ERK1/2 band fold change vs DMSO; at 10 µM
[2] = target: Mitogen-activated protein kinase 1 (Homo sapiens) (UniProt P28482); test: as above; conditions: DLD-1 cells, ERK1/2 western blot, 24 h; at 10 µM; stronger effect = higher value
Mitogen-activated protein kinase 1 (Homo sapiens), sequence (P28482 whole entry, looked up): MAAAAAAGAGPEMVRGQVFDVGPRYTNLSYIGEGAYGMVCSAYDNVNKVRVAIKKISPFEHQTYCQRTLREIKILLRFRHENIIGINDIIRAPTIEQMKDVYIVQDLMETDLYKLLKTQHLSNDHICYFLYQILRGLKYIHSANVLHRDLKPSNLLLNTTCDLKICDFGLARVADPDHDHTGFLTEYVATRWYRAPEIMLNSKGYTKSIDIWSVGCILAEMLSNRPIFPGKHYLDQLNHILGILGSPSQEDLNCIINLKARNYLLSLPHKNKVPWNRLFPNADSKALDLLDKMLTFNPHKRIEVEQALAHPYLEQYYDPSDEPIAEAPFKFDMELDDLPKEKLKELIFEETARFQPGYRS

| inhibition [2] | Compound | fold change [1] |
| --- | --- | --- |
| 21.5% (inactive) | CN(C(=O)CNC(=O)/C=C/c1cccc(Cl)c1)C1CCS(=O)(=O)CC1 | -1.27 |
| 20.8% (inactive) | CN(C(=O)CNC(=O)/C=C/c1cccc(Cl)c1)C1CCS(=O)(=O)C1 (stereo unspecified) | -1.26 |
| 19.8% (inactive) | CN(C(=O)COC(=O)/C=C/c1cccc([N+](=O)[O-])c1)C1CCS(=O)(=O)C1 (stereo unspecified) | -1.25 |

— PubChem BioAssay AID588614 (The Scripps Research Institute Molecular Screening Center, 2011)
